# Test system: THP-1 cells
# Assay: Amount of TNF-α released from THP-1 cells
# Type: cell-based, human
# Details: free body, 37° C. for 4 hours, FIG. 8
# Experimental: Human monocyte leukemia-derived THP-1 cells (ATCC) were cultured in an RPMI1640 medium (Invitrogen/GIBCO). To the medium, 10% fetal bovine serum (JRH Bioscience), 1 mM sodium pyruvate (Invitrogen/GIBCO), 100 units/mL penicillin, and 100 μg/mL streptomycin (Invitrogen/GIBCO) were added.
# (1) The cultured Jurkat cells, derived from human T-lymphocyte leukemia cells, were recovered (1×10^6/mL), and the thus recovered cells were then centrifuged at 1000 rpm for 10 minutes. (2) After a supernatant had been removed, the residue was washed with PBS (137 mM NaCl, 3 mM KCl, 9 mM NaHPO4, 1.5 mM KH2PO4, pH 7.4). (3) The cells were suspended in 300 μL of Binding buffer ([…] Tris-HCl, 150 mM NaCl, protease inhibitor cocktail, pH 7.5). (4) The cells were disintegrated by an ultrasonic wave treatment, and the disintegration of the cells was then observed under a microscope. […] (6) The protein concentration in the cell extract of the supernatant was measured, and the extract was then diluted with Lysis buffer (137 mM NaCl, 3 mM KCl, 9 mM NaHPO4, 1.5 mM KH2PO4, protease inhibitor cocktail, pH 7.4), resulting in a final protein concentration of 5 mg/mL. […] The amount of TNF-α contained in this supernatant was measured. […] (9) 50 μL of Stop solution was added to the resultant, and the absorption spectrum at 450 nm was then measured. […]
substance,measurement,value
Lipid A,responsiveness in the THP cells (TNF-α release),not so high
